Results as given in patent US20190055576A1, “USE OF HERBICIDE-TOLERANT PROTEIN” (BEIJING DABEINONG TECHNOLOGY GROUP CO., LTD., priority 2016, published 2019).

Test system: transgenic maize plants (Zm cytoplasmic/chloroplastic ALT-1-02, ALT-2-02, ALT-3-02)
Assay: Sulfometuron-methyl tolerance of transgenic maize plants, damage degree by plant growth status
Format: in vivo
Settings: 120 g ai/ha; for Average damage % 3DAT / Average damage % 7DAT / Average damage % 14DAT / Average damage % 21DAT: 4-fold field concentration; for Average damage % 3DAT: 3 days after spraying; for Average damage % 7DAT: 7 days after spraying; for Average damage % 14DAT: 14 days after spraying; for Average damage % 21DAT: 21 days after spraying
Excerpt: The herbicide tolerance effects of Zm cytoplasmic ALT-1-02 maize plants, Zm chloroplastic ALT-1-02 maize plants, Zm cytoplasmic ALT-2-02 maize plants, Zm chloroplastic ALT-2-02 maize plants, Zm cytoplasmic ALT-3-02 maize plants, Zm chloroplastic ALT-3-02 maize plants and wild-type maize plants on Sulfometuron-methyl were detected (at V3-V4 stage), respectively.
Zm cytoplasmic ALT-1-02 maize plants, Zm chloroplastic ALT-1-02 maize plants, Zm cytoplasmic ALT-2-02 maize plants, Zm chloroplastic ALT-2-02 maize plants, Zm cytoplasmic ALT-3-02 maize plants, Zm chloroplastic ALT-3-02 maize plants and wild-type maize plants were respectively taken and sprayed with Sulfometuron-methyl (120 g ai/ha, 4-fold field concentration) and a blank solvent (water). The damage degree caused by the herbicide was measured for each plant according to the plant growth status 3 days after spraying (3 DAT), 7 days after spraying (7 DAT), 14 days after spraying (14 DAT) and 21 days after spraying (21 DAT), respectively: considering a growth status equivalent to that of the untreated plants as having a damage degree of 0%; considering conditions of leaves being partially chlorotic and yellow but substantially not affecting the plant normal growth as having a damage degree of 50%; and considering the whole plant being purple and dying as having a damage degree of 100%. There were 2 strains in Zm cytoplasmic ALT-1-02 maize plants in total (S13 and S14), 2 strains in Zm chloroplastic ALT-1-02 maize plants in total (S15 and S16), 2 strains in Zm cytoplasmic ALT-2-02 maize plants in total (S17 and S18), 2 strains in Zm chloroplastic ALT-2-02 maize plants in total (S19 and S20), 2 strains in Zm cytoplasmic ALT-3-02 maize plants in total (S21 and S22), 2 strains in Zm chloroplastic ALT-3-02 maize plants in total (S23 and S24), and 1 strain in wild-type maize plants (CK2) in total; and 10-15 plants were selected from each strain and tested.

[1] = strain S13 (Zm cytoplasmic ALT-1-02 maize)
[2] = strain S14 (Zm cytoplasmic ALT-1-02 maize)
[3] = strain S15 (Zm chloroplastic ALT-1-02 maize)
[4] = strain S16 (Zm chloroplastic ALT-1-02 maize)
[5] = strain S17 (Zm cytoplasmic ALT-2-02 maize)
[6] = strain S18 (Zm cytoplasmic ALT-2-02 maize)
[7] = strain S19 (Zm chloroplastic ALT-2-02 maize)
[8] = strain S20 (Zm chloroplastic ALT-2-02 maize)
[9] = strain S21 (Zm cytoplasmic ALT-3-02 maize)
[10] = strain S22 (Zm cytoplasmic ALT-3-02 maize)
[11] = strain S23 (Zm chloroplastic ALT-3-02 maize)
[12] = strain S24 (Zm chloroplastic ALT-3-02 maize)

## COC(=O)c1ccccc1S(=O)(=O)NC(=O)Nc1nc(C)cc(C)n1 [Sulfometuron-methyl, 2-(4,6-dimethylpyrimidine-2-amino-formamido-sulfonyl) methyl benzoate]
[1]
  Average damage % 3DAT: 6%
  Average damage % 7DAT: 0%
  Average damage % 14DAT: 0%
  Average damage % 21DAT: 0%
[2]
  Average damage % 3DAT: 7%
  Average damage % 7DAT: 0%
  Average damage % 14DAT: 0%
  Average damage % 21DAT: 0%
[3]
  Average damage % 3DAT: 0%
  Average damage % 7DAT: 0%
  Average damage % 14DAT: 0%
  Average damage % 21DAT: 0%
[4]
  Average damage % 3DAT: 0%
  Average damage % 7DAT: 0%
  Average damage % 14DAT: 0%
  Average damage % 21DAT: 0%
[5]
  Average damage % 3DAT: 6%
  Average damage % 7DAT: 0%
  Average damage % 14DAT: 0%
  Average damage % 21DAT: 0%
[6]
  Average damage % 3DAT: 5%
  Average damage % 7DAT: 0%
  Average damage % 14DAT: 0%
  Average damage % 21DAT: 0%
[7]
  Average damage % 3DAT: 0%
  Average damage % 7DAT: 0%
  Average damage % 14DAT: 0%
  Average damage % 21DAT: 0%
[8]
  Average damage % 3DAT: 0%
  Average damage % 7DAT: 0%
  Average damage % 14DAT: 0%
  Average damage % 21DAT: 0%
[9]
  Average damage % 3DAT: 5%
  Average damage % 7DAT: 0%
  Average damage % 14DAT: 0%
  Average damage % 21DAT: 0%
[10]
  Average damage % 3DAT: 5%
  Average damage % 7DAT: 0%
  Average damage % 14DAT: 0%
  Average damage % 21DAT: 0%
[11]
  Average damage % 3DAT: 0%
  Average damage % 7DAT: 0%
  Average damage % 14DAT: 0%
  Average damage % 21DAT: 0%
[12]
  Average damage % 3DAT: 0%
  Average damage % 7DAT: 0%
  Average damage % 14DAT: 0%
  Average damage % 21DAT: 0%
Transgenic maize plants
  herbicide tolerance conferred by the thifensulfuron hydrolase (ALT-1, ALT-2 and ALT-3): conferred a high level of Sulfometuron-methyl herbicide tolerance
